Columns and labels:
[1] = target: T1, ERRα (Homo sapiens, UniProt P11474); settings: Yang et al. (1999); Tremblay et al. (2001a); cited from earlier work
T1 sequence (P11474 1-423): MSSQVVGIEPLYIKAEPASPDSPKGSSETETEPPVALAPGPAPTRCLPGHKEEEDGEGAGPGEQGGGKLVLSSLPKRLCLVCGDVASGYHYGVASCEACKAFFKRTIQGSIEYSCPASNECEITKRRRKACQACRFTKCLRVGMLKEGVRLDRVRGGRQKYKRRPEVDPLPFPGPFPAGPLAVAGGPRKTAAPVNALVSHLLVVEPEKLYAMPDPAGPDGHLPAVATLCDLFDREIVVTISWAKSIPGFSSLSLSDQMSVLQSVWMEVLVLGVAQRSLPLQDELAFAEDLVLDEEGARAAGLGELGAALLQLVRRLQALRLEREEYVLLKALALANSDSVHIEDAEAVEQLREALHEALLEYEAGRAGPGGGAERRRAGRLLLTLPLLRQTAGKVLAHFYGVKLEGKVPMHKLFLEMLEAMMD

[2] = test system: ERRα mRNA; test: ERRα mRNA levels in C5.18 cultures by semi-quantitative RT-PCR, normalised against L32; type: cell-based, rat; settings: C5.18 cultures without FBS, 10^−9M E2 versus 0.01% ethanol vehicle, day 2; FIG. 8 Panel B
Method: Semi-quantitative RT-PCR was carried out as described in Bonnelye et al. (2001), over the proliferation/differentiation time course of C5.18 cultures treated with Dex. Days 3 and 6 were within the proliferation phase and days 11, 15 and 21 were within the differentiation stage. ERRα expression was normalised against that of the ribosomal probe L32. For comparison, mRNA levels for three chondroblast markers, type II collagen, aggrecan and link protein, were also assessed, normalised against L32.
C5.18 cells were grown in medium with (+) and without (−) fetal bovine serum (FBS). ERRα mRNA levels were determined by semi-quantitative RT-PCR and normalised against ribosomal probe L32.
Similar C5.18 cultures were grown without FBS but in the presence of estrogen (10^−9M E2) or vehicle (0.01% ethanol) (VEH) and mRNA levels were determined as above.

[3] = target: T1, ERRα; settings: cited from earlier work

Compound	ERRα antagonist activity [1]	ERRα mRNA levels [2]	binding to ERRα [3]
ClC1=C(Cl)C2(Cl)C3C(Cl)C(Cl)CC3C1(Cl)C2(Cl)Cl (stereo not drawn) [chlordane]	antagonise ERRα activity		
estrogen		significantly increased	does not bind
